The values below come from ChEMBL document CHEMBL1201862, “PubChem BioAssay data set” (2004).

Molecules are shown by their SMILES. Activity calls are given as the source filed them.

Experiment [1] deals with Ras and Rab interactor 1/Tyrosine-protein kinase ABL1 (Homo sapiens, UniProt P00519+Q13671). The format is functional.
Another experiment addresses Genome polyprotein (dengue virus type 2, UniProt P29990). In words: flavivirus cap methylation enzyme inhibition – biochemical, confirmation dose response, primary screen (AID 588689). In kind it is functional.
In experiment [2] the target is T1, Estrogen receptor beta (Homo sapiens, UniProt Q92731). In words: blockers of SRC-3 recruitment to ERβ – biochemical, ELISA, streptavidin-HRP readout, orthogonal assay, confirmation (AID 1060).
Experiment [3] has as its target T1, Estrogen receptor beta.
For experiment [4], the target named is DNA (cytosine-5)-methyltransferase 1 (Homo sapiens, UniProt P26358). Kind of experiment: inhibition of DNA methylation by DNMT1 – biochemical, fluorescent molecular beacon, confirmation (AID 602386). The format is functional.
The target in another experiment is T2, Estrogen receptor (Homo sapiens, UniProt P03372).
T2 sequence (P03372 whole entry): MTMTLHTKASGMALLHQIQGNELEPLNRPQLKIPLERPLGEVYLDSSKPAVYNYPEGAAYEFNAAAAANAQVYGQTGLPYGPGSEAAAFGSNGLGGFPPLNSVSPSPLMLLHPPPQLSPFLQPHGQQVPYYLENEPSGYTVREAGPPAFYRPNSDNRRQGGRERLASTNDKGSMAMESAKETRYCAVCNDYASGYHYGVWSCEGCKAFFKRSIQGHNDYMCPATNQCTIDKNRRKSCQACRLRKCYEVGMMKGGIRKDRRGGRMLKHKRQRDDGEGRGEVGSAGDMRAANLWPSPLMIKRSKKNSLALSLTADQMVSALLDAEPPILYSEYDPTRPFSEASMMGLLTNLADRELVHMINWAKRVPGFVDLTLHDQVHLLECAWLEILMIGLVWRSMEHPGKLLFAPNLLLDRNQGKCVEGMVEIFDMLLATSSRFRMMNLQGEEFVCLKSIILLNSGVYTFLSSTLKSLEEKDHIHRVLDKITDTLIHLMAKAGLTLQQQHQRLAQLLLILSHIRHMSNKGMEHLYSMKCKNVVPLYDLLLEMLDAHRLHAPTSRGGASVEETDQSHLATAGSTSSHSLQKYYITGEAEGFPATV

A further experiment deals with Nonstructural protein 1 (Influenza A virus, UniProt Q194T2). In kind it is functional, Influenza A virus (A/California/07/2009(H1N1)).
In experiment [5] the test system is Streptococcus sp. 'group A'. In words: Streptococcus pyogenes SK(-)GAS viability under kanamycin – luminescence, BacTiterGlo, confirmation, counter-screen for streptokinase expression inhibitor project, dose response (AID 1900). The format is functional, organism-based.
The test system of the next experiment is Streptococcus. Kind of experiment: GAS UMAA2166 growth inhibition – luminescence, BacTiterGlo, counter-screen for streptokinase expression inhibitor project, dose response (AID 1915).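 Further: potency for reduction of bacterial viability or growth.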 In kind it is functional, organism-based.
A further experiment addresses T3, Interleukin-8 (Homo sapiens, UniProt P10145).
T3 sequence (P10145 whole entry): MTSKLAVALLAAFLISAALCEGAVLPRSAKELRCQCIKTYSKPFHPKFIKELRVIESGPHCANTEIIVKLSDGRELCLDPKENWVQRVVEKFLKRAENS
In words: Dose Response confirmation of uHTS small molecule hits for cystic fibrosis induced NFkb Inhibitors in a PAF-induced IL8 counterscreen. The format is functional. As to conditions: read-out: IC50_Mean.

Experiment [6] deals with T4, Aryl hydrocarbon receptor (Homo sapiens, UniProt P35869).
T4 sequence (P35869 whole entry): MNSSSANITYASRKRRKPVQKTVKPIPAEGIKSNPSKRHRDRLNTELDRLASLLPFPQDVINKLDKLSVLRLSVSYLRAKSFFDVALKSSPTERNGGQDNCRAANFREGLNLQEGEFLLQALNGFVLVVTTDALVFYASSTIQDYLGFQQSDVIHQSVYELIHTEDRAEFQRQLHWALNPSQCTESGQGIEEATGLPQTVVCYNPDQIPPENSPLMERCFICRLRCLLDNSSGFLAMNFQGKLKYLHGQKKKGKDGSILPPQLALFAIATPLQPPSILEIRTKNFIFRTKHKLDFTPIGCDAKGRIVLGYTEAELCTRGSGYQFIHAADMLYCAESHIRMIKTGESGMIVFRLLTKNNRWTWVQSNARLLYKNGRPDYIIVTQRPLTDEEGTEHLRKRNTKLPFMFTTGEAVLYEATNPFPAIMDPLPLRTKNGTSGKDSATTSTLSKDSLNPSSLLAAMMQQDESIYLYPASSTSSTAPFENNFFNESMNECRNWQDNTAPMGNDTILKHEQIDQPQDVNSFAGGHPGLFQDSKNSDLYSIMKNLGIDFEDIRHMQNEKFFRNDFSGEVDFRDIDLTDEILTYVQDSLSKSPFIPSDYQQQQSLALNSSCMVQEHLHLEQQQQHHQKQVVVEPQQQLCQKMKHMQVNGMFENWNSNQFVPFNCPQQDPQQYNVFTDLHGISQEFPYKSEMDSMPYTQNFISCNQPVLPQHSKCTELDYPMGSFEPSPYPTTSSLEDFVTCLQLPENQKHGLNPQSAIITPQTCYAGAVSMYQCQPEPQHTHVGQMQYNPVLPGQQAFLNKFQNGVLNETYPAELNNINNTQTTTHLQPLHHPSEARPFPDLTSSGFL
As to conditions: Potency.

Experiment [7] has as its target Hepatocyte nuclear factor 4-alpha (Homo sapiens, UniProt P41235). In kind it is functional, cell-based.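 Further: biochemical luminescence-based dose-response counterscreen measuring inhibition of HNF4 dimerization, run alongside a screen for blockers of ABHD5–perilipin-5 interaction; split luciferase complementation of HNF4 fusion proteins in cell lysate measuring dimerization.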
Experiment [8] addresses T5, Replicative DNA helicase DnaB (Mycobacterium tuberculosis, UniProt P9WMR3).
T5 sequence (P9WMR3 whole entry): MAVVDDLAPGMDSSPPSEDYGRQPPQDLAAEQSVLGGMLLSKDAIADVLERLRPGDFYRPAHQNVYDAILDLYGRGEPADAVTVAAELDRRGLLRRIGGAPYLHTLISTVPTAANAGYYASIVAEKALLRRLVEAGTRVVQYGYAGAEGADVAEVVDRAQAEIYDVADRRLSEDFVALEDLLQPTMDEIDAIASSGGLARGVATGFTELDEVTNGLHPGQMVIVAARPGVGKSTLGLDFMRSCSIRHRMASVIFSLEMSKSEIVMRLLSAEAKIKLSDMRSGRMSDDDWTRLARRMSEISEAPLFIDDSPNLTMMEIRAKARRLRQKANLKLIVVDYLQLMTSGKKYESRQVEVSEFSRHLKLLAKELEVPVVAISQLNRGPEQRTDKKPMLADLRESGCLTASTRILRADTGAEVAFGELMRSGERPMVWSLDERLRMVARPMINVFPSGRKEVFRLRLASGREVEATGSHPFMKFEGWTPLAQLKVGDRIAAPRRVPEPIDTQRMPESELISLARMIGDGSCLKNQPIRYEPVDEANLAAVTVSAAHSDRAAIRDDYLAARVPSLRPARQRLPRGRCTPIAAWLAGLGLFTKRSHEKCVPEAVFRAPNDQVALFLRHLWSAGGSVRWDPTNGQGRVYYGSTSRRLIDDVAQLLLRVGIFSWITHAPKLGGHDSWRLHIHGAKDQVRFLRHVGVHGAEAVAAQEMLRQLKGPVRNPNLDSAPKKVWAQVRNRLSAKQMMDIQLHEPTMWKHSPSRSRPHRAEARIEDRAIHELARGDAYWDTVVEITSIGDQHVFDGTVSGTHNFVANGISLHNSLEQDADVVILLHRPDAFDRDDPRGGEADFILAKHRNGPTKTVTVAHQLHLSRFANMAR
Kind of experiment: DnaB intein splicing inhibitors, dose response, biochemical, cell-free fluorescence (AID 449749). The format is functional.

A short description of experiment [9]: inhibition of ARNT PAS-B/TACC3 complex formation – biochemical, AlphaScreen, cherry-picked samples, confirmation (AID 651703).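 Further: His-tagged ARNT PAS-B domain paired with GST-TACC3 E629A dimer coactivator fragment; potency of inhibitors that break up the complex and lower AlphaScreen signal.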 In kind it is functional, Homo sapiens.
A further experiment has as its target T6, Protein RecA (Mycobacterium tuberculosis, UniProt P9WHJ3).
T6 sequence (P9WHJ3 whole entry): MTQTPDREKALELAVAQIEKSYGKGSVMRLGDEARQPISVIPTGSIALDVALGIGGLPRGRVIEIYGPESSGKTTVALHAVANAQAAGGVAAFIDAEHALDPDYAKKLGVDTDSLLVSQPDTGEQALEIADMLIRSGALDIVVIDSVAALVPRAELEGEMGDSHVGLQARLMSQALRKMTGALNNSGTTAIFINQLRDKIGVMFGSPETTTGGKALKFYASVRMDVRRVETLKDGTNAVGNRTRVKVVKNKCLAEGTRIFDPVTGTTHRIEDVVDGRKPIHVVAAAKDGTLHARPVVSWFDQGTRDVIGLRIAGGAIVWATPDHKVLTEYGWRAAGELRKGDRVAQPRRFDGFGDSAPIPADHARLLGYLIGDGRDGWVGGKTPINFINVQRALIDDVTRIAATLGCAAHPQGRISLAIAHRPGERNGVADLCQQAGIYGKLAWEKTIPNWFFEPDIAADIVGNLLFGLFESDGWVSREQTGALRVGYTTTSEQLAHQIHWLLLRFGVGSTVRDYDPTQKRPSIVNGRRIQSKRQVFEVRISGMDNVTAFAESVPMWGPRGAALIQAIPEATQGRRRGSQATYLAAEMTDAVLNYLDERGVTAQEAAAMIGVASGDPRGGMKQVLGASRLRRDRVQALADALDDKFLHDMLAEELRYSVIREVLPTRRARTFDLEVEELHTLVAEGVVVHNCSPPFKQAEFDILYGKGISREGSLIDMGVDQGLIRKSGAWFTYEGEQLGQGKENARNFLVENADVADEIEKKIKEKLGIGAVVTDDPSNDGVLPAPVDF
Kind of experiment: Fluorescence Cell-Free Homogeneous Dose Retest to Identify Inhibitors of RecA-Intein Splicing Activity. [Related pubchem assays (depositor defined):AID2097, AID2223, AID489010, AID492950]. The format is functional.

A short description of experiment [10]: bead-based luminescence quenchers, dual-tagged ARNT – biochemical, AlphaScreen, cherry-pick, artefact control for ARNT-TACC3 interaction inhibitor project, dose response (AID 651705).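 Further: AlphaScreen bead proximity signal that flags compounds interfering with the detection technology; potency reflects signal decrease which marks the compound as an assay artifact.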 In kind it is functional.
The nature of experiment [11]: Vero cell cytotoxicity, cytotoxicity control for M. tuberculosis inhibitor project, purified and synthesized samples, set 3 (AID 504684). The following applies: […]. In kind it is functional.
The nature of experiment [12]: A Cell Based Secondary Assay to Explore Cytotoxicity in THP-1 Cells of Compounds that Modulate Mycobacterium tuberculosis in Media Containing Glycerol versus Media without Glycerol (2). In kind it is functional.
Experiment [13] addresses Potassium voltage-gated channel subfamily KQT member 2 (Rattus norvegicus, UniProt O88943). In words: blockers of KCNQ2 channel current – cell-based, automated electrophysiology, set II, rat KCNQ2, dose response (AID 588637). The format is functional.

T1 sequence (Q92731 whole entry): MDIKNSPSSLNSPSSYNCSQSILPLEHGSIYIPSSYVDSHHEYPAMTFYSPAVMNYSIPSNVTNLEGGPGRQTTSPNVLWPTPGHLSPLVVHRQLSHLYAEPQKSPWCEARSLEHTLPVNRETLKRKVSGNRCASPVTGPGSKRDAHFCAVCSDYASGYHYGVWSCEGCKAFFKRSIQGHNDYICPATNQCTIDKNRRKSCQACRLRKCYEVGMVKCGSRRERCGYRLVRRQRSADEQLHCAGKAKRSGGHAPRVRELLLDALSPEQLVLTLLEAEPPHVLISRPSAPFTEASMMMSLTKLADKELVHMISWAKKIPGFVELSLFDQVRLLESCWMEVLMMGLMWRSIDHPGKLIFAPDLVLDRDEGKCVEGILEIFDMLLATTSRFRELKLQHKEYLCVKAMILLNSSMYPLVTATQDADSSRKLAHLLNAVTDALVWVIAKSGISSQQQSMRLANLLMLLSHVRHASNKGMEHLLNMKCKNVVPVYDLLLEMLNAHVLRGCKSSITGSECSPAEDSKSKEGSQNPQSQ
Sequence of Potassium voltage-gated channel subfamily KQT member 2 (O88943 whole entry): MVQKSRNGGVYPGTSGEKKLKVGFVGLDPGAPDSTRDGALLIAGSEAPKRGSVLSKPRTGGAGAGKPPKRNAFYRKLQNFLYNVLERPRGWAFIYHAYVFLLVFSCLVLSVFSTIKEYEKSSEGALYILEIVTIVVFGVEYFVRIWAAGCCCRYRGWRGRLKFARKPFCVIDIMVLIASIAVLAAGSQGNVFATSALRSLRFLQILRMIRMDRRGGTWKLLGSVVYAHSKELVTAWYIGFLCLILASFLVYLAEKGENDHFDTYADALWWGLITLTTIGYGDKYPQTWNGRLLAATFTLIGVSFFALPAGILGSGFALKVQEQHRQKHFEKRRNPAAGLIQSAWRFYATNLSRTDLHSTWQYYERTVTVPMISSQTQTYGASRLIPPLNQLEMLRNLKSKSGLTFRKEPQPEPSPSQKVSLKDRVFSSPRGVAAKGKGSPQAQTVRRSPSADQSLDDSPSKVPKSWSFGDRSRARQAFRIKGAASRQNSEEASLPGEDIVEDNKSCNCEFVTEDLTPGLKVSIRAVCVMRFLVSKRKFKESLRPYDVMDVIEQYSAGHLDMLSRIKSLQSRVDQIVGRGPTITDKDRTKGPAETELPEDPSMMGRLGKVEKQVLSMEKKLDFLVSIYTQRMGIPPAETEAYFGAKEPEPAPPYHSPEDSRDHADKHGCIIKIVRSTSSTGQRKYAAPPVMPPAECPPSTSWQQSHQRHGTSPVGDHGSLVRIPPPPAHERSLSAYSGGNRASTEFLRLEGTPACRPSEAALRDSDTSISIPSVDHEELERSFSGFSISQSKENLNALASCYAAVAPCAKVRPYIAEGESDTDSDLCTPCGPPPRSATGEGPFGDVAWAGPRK
Sequence of DNA (cytosine-5)-methyltransferase 1 (P26358 whole entry): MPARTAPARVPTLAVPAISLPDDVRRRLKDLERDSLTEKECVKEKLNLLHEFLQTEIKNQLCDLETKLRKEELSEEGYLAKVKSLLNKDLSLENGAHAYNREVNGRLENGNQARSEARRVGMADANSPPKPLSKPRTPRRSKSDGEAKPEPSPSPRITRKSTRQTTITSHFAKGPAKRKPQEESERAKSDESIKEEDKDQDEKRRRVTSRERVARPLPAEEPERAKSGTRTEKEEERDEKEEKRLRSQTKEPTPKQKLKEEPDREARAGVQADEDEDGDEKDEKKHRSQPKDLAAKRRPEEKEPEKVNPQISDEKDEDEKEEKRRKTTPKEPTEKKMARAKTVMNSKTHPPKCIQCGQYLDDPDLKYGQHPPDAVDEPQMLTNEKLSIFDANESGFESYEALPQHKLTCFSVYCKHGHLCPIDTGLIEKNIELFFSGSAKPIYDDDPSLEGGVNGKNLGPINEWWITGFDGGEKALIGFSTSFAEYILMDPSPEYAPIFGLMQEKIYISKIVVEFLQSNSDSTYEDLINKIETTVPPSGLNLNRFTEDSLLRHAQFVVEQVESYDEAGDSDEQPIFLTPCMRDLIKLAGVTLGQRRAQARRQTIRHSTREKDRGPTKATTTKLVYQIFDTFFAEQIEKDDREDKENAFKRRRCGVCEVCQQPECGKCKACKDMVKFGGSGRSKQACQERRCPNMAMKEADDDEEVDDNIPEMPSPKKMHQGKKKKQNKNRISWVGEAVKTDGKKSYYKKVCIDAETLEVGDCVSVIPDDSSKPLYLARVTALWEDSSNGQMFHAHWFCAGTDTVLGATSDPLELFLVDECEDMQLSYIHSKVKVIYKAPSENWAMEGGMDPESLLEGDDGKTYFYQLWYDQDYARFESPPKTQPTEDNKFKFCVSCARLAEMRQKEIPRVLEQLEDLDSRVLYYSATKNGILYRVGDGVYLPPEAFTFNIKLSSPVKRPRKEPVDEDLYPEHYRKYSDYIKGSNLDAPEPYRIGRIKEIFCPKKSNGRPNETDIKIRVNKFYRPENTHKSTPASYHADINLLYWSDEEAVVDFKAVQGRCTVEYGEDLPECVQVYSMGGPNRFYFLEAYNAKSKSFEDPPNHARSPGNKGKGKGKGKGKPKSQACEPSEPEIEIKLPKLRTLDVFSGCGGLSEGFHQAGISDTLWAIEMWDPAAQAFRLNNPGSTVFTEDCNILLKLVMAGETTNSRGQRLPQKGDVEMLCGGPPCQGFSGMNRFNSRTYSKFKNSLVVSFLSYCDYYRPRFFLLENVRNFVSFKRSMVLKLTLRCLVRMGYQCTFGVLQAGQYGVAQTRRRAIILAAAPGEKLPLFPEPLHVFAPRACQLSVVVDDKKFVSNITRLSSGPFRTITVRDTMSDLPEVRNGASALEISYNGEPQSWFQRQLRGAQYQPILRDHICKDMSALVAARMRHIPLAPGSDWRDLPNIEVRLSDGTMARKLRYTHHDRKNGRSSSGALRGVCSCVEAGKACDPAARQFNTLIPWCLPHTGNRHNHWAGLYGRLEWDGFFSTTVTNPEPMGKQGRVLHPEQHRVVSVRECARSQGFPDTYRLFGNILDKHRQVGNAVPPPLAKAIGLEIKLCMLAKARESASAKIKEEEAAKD
Sequence of Nonstructural protein 1 (Q194T2 whole entry): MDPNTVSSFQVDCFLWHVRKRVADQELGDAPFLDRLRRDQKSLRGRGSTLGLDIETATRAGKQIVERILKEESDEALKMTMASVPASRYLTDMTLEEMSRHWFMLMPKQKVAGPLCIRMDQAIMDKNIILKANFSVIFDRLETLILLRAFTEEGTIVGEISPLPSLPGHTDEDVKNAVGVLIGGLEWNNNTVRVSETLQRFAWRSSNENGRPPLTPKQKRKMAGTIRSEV
Sequence of Hepatocyte nuclear factor 4-alpha (P41235 whole entry, the tested form may be a part): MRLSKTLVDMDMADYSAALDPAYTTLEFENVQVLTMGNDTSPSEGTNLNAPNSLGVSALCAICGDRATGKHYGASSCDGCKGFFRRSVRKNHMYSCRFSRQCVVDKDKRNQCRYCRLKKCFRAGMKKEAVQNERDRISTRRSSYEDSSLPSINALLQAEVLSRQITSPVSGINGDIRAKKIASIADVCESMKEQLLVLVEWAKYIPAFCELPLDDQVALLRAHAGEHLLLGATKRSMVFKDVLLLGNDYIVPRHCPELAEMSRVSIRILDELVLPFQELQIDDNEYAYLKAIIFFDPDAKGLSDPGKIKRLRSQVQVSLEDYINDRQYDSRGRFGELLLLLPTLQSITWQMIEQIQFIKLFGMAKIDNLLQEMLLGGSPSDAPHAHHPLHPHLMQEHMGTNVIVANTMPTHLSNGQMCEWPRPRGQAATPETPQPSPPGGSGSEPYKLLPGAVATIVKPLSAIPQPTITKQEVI
Sequence of Genome polyprotein (P29990 2492-3391 limits assumed): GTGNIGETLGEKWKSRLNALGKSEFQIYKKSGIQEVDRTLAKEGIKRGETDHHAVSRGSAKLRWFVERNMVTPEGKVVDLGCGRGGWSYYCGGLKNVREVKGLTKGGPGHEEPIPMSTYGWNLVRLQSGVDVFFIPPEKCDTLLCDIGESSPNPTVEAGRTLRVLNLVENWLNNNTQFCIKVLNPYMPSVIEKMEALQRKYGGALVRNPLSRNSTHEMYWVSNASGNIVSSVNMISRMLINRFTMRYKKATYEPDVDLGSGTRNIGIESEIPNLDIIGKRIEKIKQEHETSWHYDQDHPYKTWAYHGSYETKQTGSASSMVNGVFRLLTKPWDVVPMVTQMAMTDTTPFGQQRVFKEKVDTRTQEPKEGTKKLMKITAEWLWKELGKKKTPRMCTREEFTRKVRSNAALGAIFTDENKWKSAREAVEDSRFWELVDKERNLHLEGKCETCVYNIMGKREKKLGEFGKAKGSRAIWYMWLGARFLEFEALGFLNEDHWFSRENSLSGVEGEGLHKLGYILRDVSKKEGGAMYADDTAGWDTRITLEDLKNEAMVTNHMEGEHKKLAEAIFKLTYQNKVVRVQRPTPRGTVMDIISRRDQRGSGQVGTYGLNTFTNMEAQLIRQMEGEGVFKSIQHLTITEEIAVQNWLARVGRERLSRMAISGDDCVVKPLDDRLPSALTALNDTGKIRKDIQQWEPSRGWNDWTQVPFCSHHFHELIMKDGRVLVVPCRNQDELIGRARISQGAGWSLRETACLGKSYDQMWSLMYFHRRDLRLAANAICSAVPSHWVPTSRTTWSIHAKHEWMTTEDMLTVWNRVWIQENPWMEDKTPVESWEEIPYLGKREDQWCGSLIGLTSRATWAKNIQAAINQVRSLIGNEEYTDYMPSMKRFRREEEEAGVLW

Take `CN(CCc1ccccc1)C(=O)c1ccc(NC(=O)Cc2ccc(NC(=O)C3CCN(C(=O)C4CCCC4)CC3)cc2)cc1`: the IC50 in [1] was 1.38 µM (active).
In the case of `Cc1nn(-c2ccccc2)c(Cl)c1/C=N/Nc1ccc(S(=O)(=O)Nc2ccccc2C(=O)O)cc1[N+](=O)[O-]`, the IC50 on Genome polyprotein is 33.1 µM (active); at Estrogen receptor beta [2], > 50 µM (not active); on Estrogen receptor beta [3] it was 7.26 µM (active); in experiment [4], 4.29 µM (active); on Estrogen receptor, 6.84 µM (active); at Nonstructural protein 1, 67.6 µM (active). Also, the EC50 in experiment [5] was 1.86 µM (active); with Streptococcus, 4.27 µM (active).
For `OCCN1CCN(c2ncnc3ccc(Br)cc23)CC1`, the IC50 on Interleukin-8 was 22 µM (inactive).
Take `CC1(COc2ccc(CC3SC(=O)NC3=O)cc2)CCCCC1` (stereo unspecified) [CIGLITAZONE]: the AC50 in experiment [6] was 56.2 µM (inconclusive).
Regarding `O=C(NC1CCCCC1)C(c1cccc2ccccc12)n1c(=O)c(-c2ccco2)nc2ccccc21` (stereo unspecified), the IC50 in [7] is 1.48 µM (active).
Regarding `COC(=O)CC1=NN(c2nc(C)cc(C)n2)C(=O)C1`, the AC50 in experiment [8] is 103 µM (active); in experiment [9], 123 µM (active). Further, the EC50 at Protein RecA was > 380 µM (inactive).
For the molecule `Cc1cccc(NC(=O)CSc2cccc3cccnc23)c1`, the AC50 in experiment [10] was 76.9 µM (active).
In the case of `CCOC(=O)C(C)Sc1ncnc2c1nnn2-c1ccc(F)cc1` (stereo unspecified), the CC50 in [11] is 67.1 µM (active); in experiment [12] it was 55.2 µM (active). For the same molecule, in experiment [8], the AC50 was 10.4 µM (active). Moreover, the EC50 on Protein RecA was 10.9 µM (active).
Regarding `O=C(OCC(=O)N(CCc1ccccc1)Cc1ccccc1)c1ccccc1O`, the IC50 in experiment [13] was 1.83 µM (active).
